The source made the active and inactive calls. The rule behind the calls is not given here.

This series concerns GENE-TOX genotoxicity assays, various organisms and cells. The series can be described thus: GENE-TOX mutagenicity studies. To be noted: for call: Assay Type: In vivo carcinogenicity studies, Assay Code: CCG+. The text has this: GENE-TOX provides genetic toxicology (mutagenicity) test data from expert peer review of open scientific literature for more than 3,000 chemicals from the United States Environmental Protection Agency (EPA). GENE-TOX was established to select assay systems for evaluation, review data in the scientific literature, and recommend proper testing protocols and evaluation procedures for these systems.
GENE-TOX covers the years 1991 - 1998. It is no longer updated.
This is an archive assay for GENE-TOX mutagenicity studies.

[1] abbreviates: Species/Cell Type: Salmonella typhimurium (one or more of the five standard strains: TA98, TA100, TA1535, TA1537, and TA1538), Assay Type: Histidine reverse gene mutation, Ames assay, Assay Code: SAL+, Evaluation Type: Evaluation A (Pre-1980).
The mark [2] stands for this setting: Species/Cell Type: Salmonella typhimurium (one or more of the five standard strains: TA98, TA100, TA1535, TA1537, and TA1538), Assay Type: Histidine reverse gene mutation, Ames assay, Assay Code: SAL+*, Activation: With metabolic activation, Evaluation Type: Evaluation A (Pre-1980).
Setting [3] is: Species/Cell Type: Nonhuman, Evaluation Type: Evaluation A (Pre-1980).

Turning to `O=C1c2ccccc2C(=O)N1SC(Cl)(Cl)Cl`, the mutagenic call (Species/Cell Type: Bacillus subtilis (H17 vs M45), Assay Type: Rec-assay, spot test, DNA effects (bacterial DNA repair), Assay Code: REWT, Evaluation Type: Evaluation A (Pre-1980)) is on record as “no conclusion”; the mutagenic call (Species/Cell Type: Chinese hamster ovary (CHO) cells, Assay Type: Forward gene mutation at the HPRT locus, Assay Code: CHO+, Evaluation Type: Evaluation B (Post-1980)) was “active; positive”; the mutagenic call (Species/Cell Type: Drosophila melanogaster, Assay Type: Sex-linked recessive lethal gene mutation, Assay Code: SRL+, Evaluation Type: Evaluation A (Pre-1980)) was “active; positive”; the mutagenic call (Species/Cell Type: Escherichia coli WP2, Assay Type: Tryptophan reverse gene mutation, Assay Code: WP2+, Evaluation Type: Evaluation A (Pre-1980)) was “active; positive”; the mutagenic call (Species/Cell Type: Escherichia coli WP2 UVRA, Assay Type: Tryptophan reverse gene mutation, Assay Code: WPU+/-*, Activation: With metabolic activation, Evaluation Type: Evaluation A (Pre-1980)) was “inactive; positive without activation, negative with activation”; the mutagenic call (Species/Cell Type: Escherichia coli polA (W3119 vs P3478), Assay Type: Rec-assay, DNA effects (bacterial DNA repair), Assay Code: RE1+, Evaluation Type: Evaluation A (Pre-1980)) is “active; positive”. Also, the mutagenic call is “inactive; negative” (Species/Cell Type: Human diploid fibroblasts, Assay Type: Unscheduled DNA synthesis (UDS) in vitro, DNA effects, Assay Code: UDH-, Evaluation Type: Evaluation A (Pre-1980)); “no conclusion” (Species/Cell Type: Rodents, Sex: Male, Assay Type: Dominant lethal test, Assay Code: DLTT, Evaluation Type: Evaluation A (Pre-1980)); “active; positive” (Species/Cell Type: Saccharomyces cerevisiae, Assay Type: Mitotic recombination or gene conversion, Assay Code: YEC+, Evaluation Type: Evaluation A (Pre-1980)); “active; positive” (Species/Cell Type: Saccharomyces cerevisiae, Assay Type: Mitotic recombination or gene conversion, Assay Code: YEH+, Evaluation Type: Evaluation A (Pre-1980)); “active; positive” under setting [1]; “inactive; negative” (Species/Cell Type: Salmonella typhimurium, Assay Type: Forward and reverse gene mutation, host-mediated assay, Assay Code: HMA-, Evaluation Type: Evaluation A (Pre-1980)).
For the molecule `c1ccc2c(c1)Sc1ccccc1N2CCCN1CCNCC1`, the mutagenic call is listed as “no conclusion” (Species/Cell Type: Human lymphocytes, Assay Type: Sister-chromatid exchange (SCE) in vitro, Assay Code: SCLT, Evaluation Type: Evaluation B (Post-1980)) and “no conclusion” (Species/Cell Type: Human, Assay Type: Sister-chromatid exchange (SCE) in vitro, Assay Code: SC1T, Evaluation Type: Evaluation B (Post-1980)).
Turning to `Cc1ccc2ncccc2c1`, under setting [2], the mutagenic call was “active; positive”.
As for `NN`, the mutagenic call is “no conclusion” (Species/Cell Type: Drosophila melanogaster, Assay Type: Sex-linked recessive lethal gene mutation, Assay Code: SRLT, Evaluation Type: Evaluation A (Pre-1980)); “active; positive” (Species/Cell Type: Nonhuman, Assay Type: Sister-chromatid exchange (SCE) in vitro, Assay Code: SC2+D, Dose Response: With dose response, Evaluation Type: Evaluation B (Post-1980)); “active; positive” (Species/Cell Type: Saccharomyces cerevisiae, Assay Type: Forward gene mutation, Assay Code: YEF+, Evaluation Type: Evaluation A (Pre-1980)); “active; positive” (Species/Cell Type: Vicia faba, Assay Type: Chromosome aberrations, Assay Code: VIC+, Evaluation Type: Evaluation A (Pre-1980)). Besides, under setting [3], the call is “active; positive”.
For the molecule `NS(=O)(=O)c1ccc(C(=O)O)cc1`, the mutagenic call (Species/Cell Type: Mammalian polychromatic erythrocytes, Assay Type: Micronucleus test, chromosome aberrations, Assay Code: MNTT, Evaluation Type: Evaluation B (Post-1980)) was “no conclusion”.
For the molecule `O=S(=O)(O)c1ccc(O)c(N=Nc2c(O)ccc3ccccc23)c1`, the mutagenic call (Species/Cell Type: Salmonella typhimurium (one or more of the five standard strains: TA98, TA100, TA1535, TA1537, and TA1538), Assay Type: Histidine reverse gene mutation, Ames assay, Assay Code: SALT, Evaluation Type: Evaluation A (Pre-1980)) is recorded as “no conclusion”.
On to `Nc1ccc(Cl)cc1N`, for which, under setting [3], the call was “active; positive”.
With `c1c(N2CC2)nc(N2CC2)nc1N1CC1`, the mutagenic call (Species/Cell Type: Aspergillus nidulans, Assay Type: Reverse gene mutation, Assay Code: ASR+, Evaluation Type: Evaluation A (Pre-1980)) was “active; positive”.
`Cc1cc2c3ccccc3ccc2c2ccccc12`: the mutagenic call under setting [2] is “active; positive”.
As to `O=NN1CCC(O)C1` (stereo unspecified), the mutagenic call under setting [1] was “active; positive”.

For the origin of these results see PubChem BioAssay AID1259408 (Genetic Toxicology Data Bank (GENE-TOX), 2018).
